Test results from PubChem BioAssay (NCI).
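Five compound concentrations were applied to cells in 96-well plates for 48 hours; endpoints were derived by simple linear interpolation of the resulting dose-response curve. TGI is the concentration that stops growth completely.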

Key:
Assay in all cases: inhibition of tumour cell growth, NCI panel, 48 h
[1] = tested on: SK-OV-3 ovarian
[2] = tested on: HCC-2998 colon
[3] = tested on: HOP-92 NSCLC
[4] = tested on: SN12C renal
[5] = tested on: NCI-H226 lung
[6] = tested on: EKVX NSCLC
[7] = tested on: UACC-257 melanoma
[8] = tested on: CCRF-CEM leukemia
[9] = tested on: MALME-3M melanoma
[10] = tested on: HCT-15 colon
[11] = tested on: SK-MEL-5 melanoma
[12] = tested on: LOX IMVI melanoma
[13] = tested on: HS 578T breast
[14] = tested on: T-47D breast

SMILES | TGI [1] [µM] | TGI [2] [µM] | TGI [3] [µM] | TGI [4] [µM] | TGI [5] [µM] | TGI [6] [µM] | TGI [7] [µM] | TGI [8] [µM] | TGI [9] [µM] | TGI [10] [µM] | TGI [11] [µM] | TGI [12] [µM] | TGI [13] [µM] | TGI [14] [µM]
c1ccc2c(NCCCCCCCCNc3cccc4ccccc34)cccc2c1 | > 100 | > 100 | 35.7 | > 100 | > 100 | > 10 | 51.7 | 42.5 | 46.5 | 84.7 | > 10 |  |  | 
CCC12CC[C@H](C#N)N3CCc4c(n(c5ccccc45)C(=O)C1)C32 (stereo partly specified) | 75 | 32.4 |  | 37.8 |  | 64.1 | 32.9 | 44.3 | 19.3 | 20.3 | 27.2 | 27.3 |  | 
CSC1=N/C(=C\c2ccc(Cl)cc2)C(=O)N1CN1CCOCC1 | > 100 |  | 30.6 | > 100 | > 100 | > 100 |  | > 100 | > 100 | > 100 | > 100 | > 100 | > 100 | 
Cc1nc2c(s/c(=N\N)n2-c2ccccc2)c(=O)[nH]1 | > 100 | > 100 | > 100 | > 100 | > 100 | > 100 | > 100 | > 100 | > 100 | > 100 | > 100 | > 100 |  | 
BrC12C3C4C5C(C(C43)C13OCCO3)C52 (stereo unspecified) | > 100 | > 100 | > 100 |  |  | > 100 | > 100 | > 100 | > 100 |  | > 100 | > 100 |  | 
COc1ccc2c(c1)CC1NC2Cc2ccccc21 (stereo unspecified) | > 100 | > 100 |  |  |  | > 100 | > 100 | > 100 | > 100 | > 100 | > 100 |  |  | 
Cc1cc(Cl)ccc1NC(=O)/C(CC(=O)CC(c1ccccc1)c1c(O)c2ccccc2oc1=O)=N\O (stereo unspecified) | > 100 | > 100 | > 100 | > 100 | > 100 | > 100 | > 100 | > 100 |  | > 100 | > 100 | > 100 | > 100 | 
CC1C(c2ccccc2)=CCON1c1ccccc1 (stereo unspecified) | > 100 | > 100 |  | > 100 | > 100 | > 100 | > 100 | > 100 | > 100 | > 100 | > 100 | > 100 |  | 
N=c1oc2cc(O)c(O)cc2cc1C(N)=O | > 100 | > 100 | > 100 | > 100 | > 100 | > 100 | > 100 | > 100 | > 100 | > 100 | > 100 | > 100 |  | 
c1cc2[se][se]c3c4cccc5[se][se]c(c(c1)c23)c54 | > 100 |  | > 100 | > 100 | > 100 |  | > 100 | > 100 | > 100 |  | > 100 | > 100 |  | 
O=C1OC(c2ccccc2)(c2ccccc2)CC1CN1CCOCC1 (stereo unspecified) | 60.6 | 31.4 |  | 25.1 |  | > 100 | 20.9 | 9.44 | 26.6 | 29.6 | > 100 | 28 |  | 
CC(C)(C)c1cc(N=NC(=S)NCc2ccccc2)cc(C(C)(C)C)c1O |  | > 100 |  | > 100 | > 100 | > 100 | > 100 | > 100 | > 100 | > 100 | > 100 | > 100 |  | 
CCCN(CCC)C(=S)N/N=C/c1cccc(C)n1 | 15.7 |  | > 100 | 3.13 | 0.837 | 8.34 | 0.457 | 0.275 | 14.9 | 24.5 | 0.654 | 15.6 | > 100 | 
CC(=O)/C(=C/N1C(=O)CC(=O)NC1=S)C(=O)Nc1ccccc1C | > 100 | 84.7 | > 100 | > 100 | > 100 | > 100 | > 100 |  |  | > 100 | > 100 | > 100 |  | > 100
Cc1nn(-c2ccccc2)c2nc3c(c(C)nn3-c3ccccc3)c(-c3ccccc3Br)c12 | > 100 | > 100 | > 100 | > 100 | > 100 | > 100 | > 100 | > 100 | > 100 | > 100 | > 100 | > 100 |  | > 100
CC(C(O)c1ccccc1)N(C)/N=N/c1nc2c([nH]1)c(=O)n(C)c(=O)n2C (stereo unspecified) | > 100 | > 100 |  | > 100 | > 100 | > 100 | > 100 | > 100 | > 100 | > 100 | > 100 |  | > 100 | > 100
CC[N+](CC)(CC)Cc1cn(S(=O)(=O)c2ccccc2)c2ccccc12 |  | > 100 | > 100 |  | > 100 |  | > 100 | > 100 | > 100 | > 100 | > 100 |  |  | 
NC(=O)CC1(O)C=CC(=O)C=C1 | > 100 | > 100 | > 100 | > 100 | > 100 | > 100 | > 100 | > 100 | > 100 | > 100 | > 100 | > 100 |  | > 100
Cc1nc(Nc2ccccc2)sc1C(=O)NNC(N)=O | > 100 | > 100 | > 100 | > 100 | > 100 | > 100 | 71.6 | > 100 | > 100 |  | > 100 | > 100 |  | 
O=C(O/N=C1/CCC/C1=C\c1ccccc1)c1ccccc1 | > 100 |  | > 100 | > 100 | > 100 | > 100 | > 100 | > 100 | > 100 | > 100 | > 100 | > 100 |  | 

SMILES | TGI [1] [µM] | TGI [2] [µM] | TGI [3] [µM] | TGI [4] [µM] | TGI [5] [µM] | TGI [6] [µM] | TGI [7] [µM] | TGI [8] [µM] | TGI [9] [µM] | TGI [10] [µM] | TGI [11] [µM] | TGI [12] [µM] | TGI [13] [µM] | TGI [14] [µM]
Cc1nc2c(n1CCCl)C(=O)c1ccccc1C2=O | 79.6 | 67.5 | 72.1 | > 100 | 50.1 | > 100 | 28.9 | > 100 | 19.2 | 40.9 |  |  | > 100 | 
CCOC(=O)C1=C(C)C2C3C(=O)NC(=O)C3C1(C)C1C(=O)NC(=O)C21 (stereo unspecified) | > 100 | > 100 | > 100 | > 100 | > 100 | > 100 | > 100 | > 100 | > 100 | > 100 | > 100 | > 100 |  | 
O=C(/C=C(\O)C(=O)O)/C=C(\O)c1ccccc1Cl | > 100 | > 100 | > 100 | > 100 | > 100 | > 100 | > 100 | > 100 | > 100 | > 100 | > 100 | > 100 |  | 
COC(=O)C1=C(C(=O)OC)C(C(=O)c2ccccc2)N2N=C(c3ccc(Cl)cc3)C=CC12 (stereo unspecified) | > 100 | > 100 | > 100 | > 100 | 66.1 | > 100 | > 100 | > 100 | 83.7 | > 100 | > 100 | > 100 |  | > 100
O=C(/C=C\c1cccc2ccccc12)c1ccc(Br)cc1 | 93.6 | 31.7 | 85.6 | > 100 | > 100 | 52.1 | 51.9 | 50.6 | 81.6 | 34.7 | 38.7 |  |  | 
Cc1cccc(NC(=O)CSc2nnc(Cc3ccccc3)o2)c1 | > 100 | > 100 |  | > 100 | > 100 | > 100 | > 100 | > 100 | > 100 | > 100 | > 100 | > 100 |  | 
NC(=Nc1ccc(Cl)c(Cl)c1)c1ccccc1N | > 100 | 34.2 | 8.47 |  | > 100 | > 100 | 92.7 | > 100 | 45.9 | > 100 | 54.7 | 69.3 | 50 | 
Cc1ccc2nc(CN3CCCCC3)cc(=O)n2c1 | > 100 | > 100 | > 100 | > 100 | > 100 | > 100 | > 100 | > 100 | > 100 | > 100 |  | > 100 | > 100 | 
Cc1ccc(C2=NN(C)COC2C(F)(F)F)cc1 (stereo unspecified) | > 100 | > 100 | > 100 | > 100 | > 100 | > 100 | > 100 | > 100 | > 100 | > 100 | > 100 |  |  | 
CC/C(=C/OC)P1(=O)OC(C)(C)CN1C(C)(C)C (stereo unspecified) | > 100 | > 100 |  |  | > 100 | > 100 | > 100 |  | > 100 | > 100 | > 100 | > 100 |  | > 100
CC(C)C1=CC(=O)C(C)(C2=NC(C)(C)CO2)c2ccccc21 (stereo unspecified) | > 100 |  | > 100 | > 100 | > 100 | > 100 | > 100 | > 100 | > 100 | > 100 | > 100 |  |  | 
Nc1ccccc1C(=O)NNC(=O)c1ccccc1N | > 100 | > 100 | > 100 | > 100 | > 100 | > 100 | > 100 | > 100 | > 100 | > 100 | > 100 | > 100 |  | > 100
CCOC(=O)C(=O)Nc1ccc([N+](=O)[O-])cc1C#N | > 100 | > 100 | > 100 | > 100 | > 100 | > 100 | > 100 | > 100 | > 100 | > 100 | > 100 | > 100 |  | 
COc1ccccc1NC(=S)Nc1cccc(C)n1 | > 100 |  |  | > 100 | > 100 | > 100 | > 100 | > 100 | > 100 | > 100 | > 100 | > 100 | > 100 | > 100
Cn1c(=S)[nH]c2c(Cl)cc(Cl)cc2c1=O | > 100 | > 100 | > 100 | > 100 |  | > 100 | > 100 | 64.7 |  | > 100 | > 100 | > 100 | > 100 | 
CCOC(=O)Cc1nc2nn(Cc3ccccc3)cc2c(=O)[nH]1 | > 100 | > 100 |  | > 100 | > 100 | > 100 | > 100 | > 100 | > 100 | > 100 | > 100 | > 100 |  | > 100
O=C(CSc1nnc(-c2ccc(N=Cc3ccc(Cl)cc3)cc2)o1)Nc1ccccc1 | > 100 |  |  | > 100 | > 100 | > 100 | > 100 | > 100 | > 100 | > 100 | > 100 | 36.4 |  | 
Cc1c(C(=O)Nc2ccc(Cl)c(C(F)(F)F)c2)oc2cc(O)ccc2/c1=N\NC(N)=S | > 100 | > 100 |  | > 100 | > 100 | > 100 | > 100 | > 100 | > 100 | > 100 | > 100 | > 100 |  | 
NC(=S)Nc1nnc(-c2ccc(-c3nnc(NC(N)=S)o3)cc2)o1 | > 100 | > 100 | > 100 | > 100 | > 100 | > 100 | > 100 | > 100 | > 100 | > 100 | > 100 | > 100 |  | 
Clc1cccc(Cl)c1C1SCc2nc3cc4ccccc4cc3n21 (stereo unspecified) | > 100 | > 100 |  | > 100 | > 100 | > 100 | > 100 | > 100 | > 100 | > 100 | > 100 |  | > 100 | > 100
